The assay addresses T1, recombinant guanylate cyclase reporter cell line (Rattus norvegicus, UniProt P19686+P20595).
T1 construct: expressed in transfected cells
T1 sequence (P20595 1-619): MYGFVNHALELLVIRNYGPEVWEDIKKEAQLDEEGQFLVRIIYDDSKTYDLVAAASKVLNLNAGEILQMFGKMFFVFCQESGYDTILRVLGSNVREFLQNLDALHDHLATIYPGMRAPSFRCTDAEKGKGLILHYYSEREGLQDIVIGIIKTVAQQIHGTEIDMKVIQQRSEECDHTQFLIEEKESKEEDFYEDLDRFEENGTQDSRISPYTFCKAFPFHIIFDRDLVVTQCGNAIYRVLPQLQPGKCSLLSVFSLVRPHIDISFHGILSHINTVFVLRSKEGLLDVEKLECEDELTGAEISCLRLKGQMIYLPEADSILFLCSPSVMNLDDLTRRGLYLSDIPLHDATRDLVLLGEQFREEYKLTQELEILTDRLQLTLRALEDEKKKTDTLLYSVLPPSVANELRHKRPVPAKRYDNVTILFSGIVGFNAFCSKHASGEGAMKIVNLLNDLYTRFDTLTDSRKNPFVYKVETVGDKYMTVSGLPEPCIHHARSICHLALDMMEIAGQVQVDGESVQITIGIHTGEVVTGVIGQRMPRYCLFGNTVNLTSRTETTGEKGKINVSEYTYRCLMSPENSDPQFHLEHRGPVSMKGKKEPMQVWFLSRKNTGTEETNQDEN
T1 sequence (P19686 1-690): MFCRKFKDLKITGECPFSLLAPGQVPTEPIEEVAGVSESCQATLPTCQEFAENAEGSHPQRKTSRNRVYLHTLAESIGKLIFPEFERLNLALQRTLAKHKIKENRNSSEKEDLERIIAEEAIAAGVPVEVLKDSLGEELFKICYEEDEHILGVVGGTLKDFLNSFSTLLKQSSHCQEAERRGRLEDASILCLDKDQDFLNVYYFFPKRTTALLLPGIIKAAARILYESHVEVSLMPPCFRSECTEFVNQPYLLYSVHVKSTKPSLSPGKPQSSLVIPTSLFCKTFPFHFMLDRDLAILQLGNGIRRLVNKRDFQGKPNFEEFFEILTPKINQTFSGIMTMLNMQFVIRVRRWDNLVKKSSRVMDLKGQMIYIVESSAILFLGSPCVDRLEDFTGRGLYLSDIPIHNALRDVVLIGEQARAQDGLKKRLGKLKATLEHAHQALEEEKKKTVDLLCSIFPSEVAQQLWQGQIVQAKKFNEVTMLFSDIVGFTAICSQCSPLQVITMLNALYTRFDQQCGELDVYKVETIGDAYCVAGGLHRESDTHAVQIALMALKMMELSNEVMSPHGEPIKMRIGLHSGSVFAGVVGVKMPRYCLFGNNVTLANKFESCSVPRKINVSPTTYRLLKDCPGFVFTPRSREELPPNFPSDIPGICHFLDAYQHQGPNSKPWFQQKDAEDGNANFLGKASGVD
Nature of the assay: B-2. Action on recombinant guanylate cyclase reporter cell line. In kind it is cell-based. As to conditions: MEC = minimal effective concentration; in some cases mean values from individual determinations. In a few lines:
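Rat recombinant guanylate cyclase reporter cell line measures cellular activity. Value reported as MEC (minimal effective concentration), sometimes averaged over individual determinations.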

Counter-ions that a name gives are not always drawn.

Turning to `CCC(C)(N)CNC(=O)c1c(C)nc2c(OCc3c(F)ccc(OC)c3F)cc(C)cn12` (stereo not drawn) [Example 360, ent-N-(2-amino-2-methylbutyl)-8-[(2,6-difluoro-3-methoxybenzyl)oxy]-2,6-dimethylimidazo[1,2-a]pyridine-3-carboxamide], the MEC was 1.00 µM. The same measure for `COc1ccc(F)c(COc2cc(C)cn3c(C(=O)NCC(C)(N)CF)c(C)nc23)c1F` (stereo not drawn) [Example 361, ent-N-(2-amino-3-fluoro-2-methylpropyl)-8-[(2,6-difluoro-3-methoxybenzyl)oxy]-2,6-dimethylimidazo[1,2-a]pyridine-3-carboxamide]: 1.00 µM; for `Cc1cc(OCc2c(F)ccc(C3CC3)c2F)c2nc(C)c(C(=O)NCC(C)(N)CF)n2c1` (stereo not drawn) [Example 362, N-(2-amino-3-fluoro-2-methylpropyl)-8-[(3-cyclopropyl-2,6-difluorobenzyl)oxy]-2,6-dimethylimidazo[1,2-a]pyridine-3-carboxamide]: 1.00 µM. Then `CCC(C)(N)CNC(=O)c1c(C)nc2c(OCc3c(F)ccc(C4CC4)c3F)cc(C)cn12` (stereo not drawn) [Example 363, ent-N-(2-amino-2-methylbutyl)-8-[(3-cyclopropyl-2,6-difluorobenzyl)oxy]-2,6 dimethylimidazo[1,2-a]pyridine-3-carboxamide], with 3.00 µM; and `CCCC(C)(N)CNC(=O)c1c(C)nc2c(OCc3c(F)ccc(OC)c3F)cc(C)cn12` (stereo not drawn) [Example 364, ent-N-(2-amino-2-methylpentyl)-8-[(2,6-difluoro-3-methoxybenzyl)oxy]-2,6-dimethylimidao[1,2-a]pyridine-3-carboxamide], with 0.30 µM; and `Cc1cc(OCc2c(F)cccc2F)c2nc(C)c(C(=O)NC34CC5CC(CC(N)(C5)C3)C4)n2c1` [Example 365, N-(3-aminoadamantan-1-yl)-8-[(2,6-difluorobenzyl)oxy]-2,6-dimethylimidazo[1,2-a]pyridine-3-carboxamide Formate], with 1.00 µM.

Take `CCCC(C)(N)CNC(=O)c1c(C)nc2c(OCc3c(F)cccc3F)cc(CF)cn12` (stereo not drawn) [Example 403, ent-N-(2-amino-2-methylpentyl)-8-[(2,6-difluorobenzyl)oxy]-6-(fluoromethyl)-2-methylimidazo[1,2-a]pyridine-3-carboxamide]: the MEC worked out at 0.10 µM. `CCC(C)(N)CNC(=O)c1c(C)nc2c(OCc3c(F)cccc3F)cc(CF)cn12` (stereo not drawn) [Example 404, ent-N-(2-amino-2-methylbutyl)-8-[(2,6-difluorobenzyl)oxy]-6-(fluoromethyl)-2-methylimidazo[1,2-a]pyridine-3-carboxamide]: the MEC turned out to be 0.30 µM. Then `Cc1nc2c(OCc3c(F)cccc3F)cc(CF)cn2c1C(=O)NCC(C)(N)CF` (stereo not drawn) [Example 405, ent-N-(2-amino-3-fluoro-2-methylpropyl)-8-[(2,6-difluorobenzyl)oxy]-6-(fluoromethyl)-2-methylimidazo[1,2-a]pyridine-3-carboxamide], with 0.30 µM.

(Values after patent US9624214B2, “Amino-substituted imidazo[1,2-a]pyridinecarboxamides and their use” (BAYER PHARMA AKTIENGESELLSCHAFT, priority 2012, dated 2017).)
